Where two headings read alike, the source gives them in different places.

The target of one experiment is T1, Human recombinant CypD (Homo sapiens, UniProt P30405).
T1 construct: purchased Atgen
The experiment can be described thus: α-chymotrypsin-coupled PPIase assay, CypD isomerase activity. The experiment is classed as biochemical. To be noted: IC50, neutralization of the isomerase activity of CypD, 5°C, 10 concentrations 0.05–1000 nM. As to the method:
Inhibition of CypA and CypD isomerase activities were quantified using a α-chymotrypsin-coupled assay adapted to a 96-well plate format. Human recombinant CypA or CypD (Atgen) was dissolved to 10 nM in PPIases buffer (50 mM Hepes, 100 mM NaCl, 1 mg/ml bovine serum albumin, 1 mg/ml α-chymotrypsin; pH 8). Succinyl-AAPF-pNA peptide substrate (Sigma) was dissolved to 3.2 mM in LiCl/trifluoroethanol. Each CypI was prepared at 10 concentrations in DMSO, then diluted into CypA/D PPIase buffer to 0.05–1000 nM. Incubations were performed at 5°C. Ninety five μL of reaction mix was added to 5 μL peptide in 96-wells and OD405 nm measured at 6-sec intervals for 6 min using a Biotek Synergy H4 plate reader. Data were fitted with Graphpad Prism 6.0 to acquire first-order rate constants, which were calculated by subtracting the rate constant from uncatalyzed reactions (no CypA/D). The catalytic rate constants were plotted as a function of inhibitor concentration to obtain IC50s.
The inhibition of the isomerase activities of CypA and CypD were measured with 10 increasing concentrations of STG-175 to quantify IC50 values.
Fig 1 Anti-PPIase and immunosuppressive activities of STG-175. A. Structures of cyclophilin inhibitors. Inhibition of CypA (B) and CypD (C) isomerase activities were assessed using the α-chymotrypsin-coupled assay. Each test compound was prepared at 10 concentrations (0.05–1000 nM). All solutions were equilibrated, and reactions conducted at 5°C. Reactions were initiated by mixing 95 μL reaction mix with 5 μL of the peptide to be cleaved and measuring OD405 nm at 6-sec intervals for 6 min. […] Enzyme catalyzed rate constants were calculated by subtracting the rate constant from uncatalyzed reactions (no CypA/D), and catalytic rate constants plotted as a function of inhibitor concentration to obtain IC50s. […] D. IL-2 promoter activation upon T-cell stimulation was determined using an engineered Jurkat T-cell line, which expresses betagalactosidase. […] The Y-axis values are expressed as percentage of activity. Data expressed as EC50s are representative of two independent experiments.

The subject of experiment [1] is HCV GT1b subgenomic replicon pFK-I389/NS3-3’. The experiment can be described thus: Luciferase reporter replicon antiviral assay, GT1b. It is filed as cell-based. To be noted: Hepatitis C virus. The procedure: The anti-HCV activity of STG-175 was conducted using a panel of luciferase reporter replicon cell lines including GT1a, GT1b, GT2a, GT3a and GT4a as we described previously. The GT1a subgenomic renilla luciferase reporter replicon H77 RLucP (7) was supplied by Dr. Delaney. The GT1b subgenomic firefly luciferase reporter replicon pFK-I389/NS3-3’ [29] was supplied by Dr. Bartenschlager. The GT1B subgenomic NS3, NS5A and NS5B mutants were created via homologous recombination using the In-Fusion HD Cloning kit (Clontech) as we described previously. The GT2a genomic luciferase reporter replicon Luc-Neo-JFH-1 was generated as previously. The plasmid pFK-Luc-JFH1 was supplied from Drs. Wakita and Pietschmann and the XbaI site in the firefly luciferase gene and the NotI site in the EMCV IRES were used to take the Luciferase/Ubiquitin-NPT II (the neomycin phosphotransferase II gene) fusion cassette out of pFK389ILuc-Neo (wild-type replicon from GT1b) and inserted into the pFK-Luc-JFH1 plasmid, generating full-length Luc-Neo-JFH-1 [30]. The GT3a subgenomic firefly luciferase reporter replicon S52/SG-Feo (AI) and the GT4a subgenomic firefly luciferase reporter replicon ED43/SG-Feo [33] were supplied by Drs. Rice and Bukh. Replicons were stably expressed in Huh7.5 or Huh7.5.1 cells under G418 selection. On Day 1, cells (5,000) were plated into 96-well plates in complete DMEM containing 10% FCS. On Day 2, increasing drug concentrations were added to wells. On Day 5, 72 h post-drug addition, medium was removed and replaced with 100 μL of fresh medium. Hundred μL of the fluorogenic, cell-permeant peptide substrate glycyl-phenylalanyl-amino fluorocoumarin was added to wells as per manufacturer’s recommendation (Promega Corp, Madison, WI). The CellTiter-Fluor™ Cell Viability Assay is a non-lytic fluorescence assay, which measures the number of live cells. […] Medium was removed, cells washed and lysed in 20 μL of Cell Culture Lysis Reagent. Luciferase activity was determined using the Luciferase Assay System (Promega) in a Berthold luminometer. The alamarBlue® assay (Thermo Fischer Scientific) was used to measure CC50s for STG-175 on replicon cell lines. When cells are alive they maintain a reducing environment within the cytosol of the cell. […] Upon entering cells, resazurin is reduced to resorufin, a compound that is red in color and highly fluorescent. Viable cells continuously convert resazurin to resorufin, increasing the overall fluorescence and color of the media surrounding cells.
Fig 2 Anti-HCV activities of STG-175 among GTs. A. Replicon-containing cells (5,000) were exposed to increasing concentrations of the indicated drugs. Seventy-two hours post-drug addition, the fluorogenic, cell-permeant peptide substrate glycyl-phenylalanyl-amino fluorocoumarin was added to measure the number of live cells. […] Luciferase activity was determined using the Luciferase Assay System in a Berthold luminometer. B. A similar experiment was conducted with the GT1b replicon cell line in 0, 5, 10, 20 and 40% of human serum. Data are expressed as mean of relative light units and calculated EC50s are presented. […] C.
(A reporter such as luciferase makes a cellular process visible.)

T1 sequence (P30405 30-207): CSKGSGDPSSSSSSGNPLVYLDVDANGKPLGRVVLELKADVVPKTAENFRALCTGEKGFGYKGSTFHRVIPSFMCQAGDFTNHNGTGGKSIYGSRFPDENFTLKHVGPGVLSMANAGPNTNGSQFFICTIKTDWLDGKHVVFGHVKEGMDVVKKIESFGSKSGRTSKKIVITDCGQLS

As to `CC=CCC(C)C(O)C1C(=O)NC(CC)C(=O)N(C)C(CSCCCCO)C(=O)N(C)C(CC(C)(C)O)C(=O)NC(C(C)C)C(=O)N(C)C(CC(C)C)C(=O)NC(C)C(=O)NC(C)C(=O)N(C)C(CC(C)C)C(=O)N(C)C(CC(C)C)C(=O)N(C)C(C(C)C)C(=O)N1C` (stereo not shown) [STG-175], the IC50 at Human recombinant CypD stood at 1.3 nM. Moreover, the EC50 in experiment [1] (0% human serum, read-out: EC50 GT1b in human serum) came out at 16 nM; in experiment [1] (5% human serum, read-out: EC50 GT1b in human serum), 15 nM; in experiment [1] (10% human serum, read-out: EC50 GT1b in human serum) it was 18.8 nM; in experiment [1] (20% human serum, read-out: EC50 GT1b in human serum) it was 22.2 nM; in experiment [1] (40% human serum, read-out: EC50 GT1b in human serum) it was 37.2 nM; in experiment [1] (72 h, 72 h post-drug addition, luciferase, read-out: EC50 GT1b), 15.1 nM.

A word on the IC50: it is the concentration needed to halve the response being measured. A word on the EC50: it is the concentration at which the effect is half-maximal.

The record behind these values is PMC4841536, “Characterization of the Anti-HCV Activities of the New Cyclophilin Inhibitor STG-175” (PLoS ONE, 2016).
